Patent US10294212B2 (CURADEV PHARMA PRIVATE LTD., priority 2013, dated 2019)

Legend:
[1] = biological target: Human indoleamine 2,3-dioxygenase1 (hIDO1) (Homo sapiens (Human), UniProt P14902); assay: In-vitro IDO1 enzyme assay (conversion of L-tryptophan to KYN); type: biochemical; details: read-out: IC50 (IDO1) Enz
Method in brief: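 His-tagged hIDO1 (10 nM, E. coli-expressed) incubated with 30 μM L-tryptophan, 20 mM ascorbate, 10 μM methylene blue and 100 μg/mL catalase in 50 mM potassium phosphate pH 6.5, 30 min at 37 °C. TCA stop, then 65 °C hydrolysis; KYN measured by HPLC-UV at 360 nm or LC/MS/MS. IC50 by nonlinear regression versus 1% DMSO control.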

[2] = biological target: IDO1 in HeLa cells (Homo sapiens (Human), UniProt P14902); assay: HeLa cell based IDO1 assay (IFNγ-induced, KYN in supernatant)
IDO1 in HeLa cells, sequence (P14902 whole entry): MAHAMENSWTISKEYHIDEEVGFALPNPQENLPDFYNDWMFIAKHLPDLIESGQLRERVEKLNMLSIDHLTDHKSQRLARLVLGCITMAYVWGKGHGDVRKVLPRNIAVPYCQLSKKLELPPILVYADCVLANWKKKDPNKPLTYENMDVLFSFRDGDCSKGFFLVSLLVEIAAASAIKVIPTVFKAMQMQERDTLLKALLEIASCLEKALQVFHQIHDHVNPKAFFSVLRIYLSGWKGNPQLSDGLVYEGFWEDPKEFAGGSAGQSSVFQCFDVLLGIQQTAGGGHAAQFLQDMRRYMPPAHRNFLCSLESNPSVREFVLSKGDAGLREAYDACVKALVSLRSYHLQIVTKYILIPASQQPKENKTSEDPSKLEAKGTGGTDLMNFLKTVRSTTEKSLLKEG
Method in brief: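 HeLa cells were induced overnight with IFNγ (50 ng/mL), washed, then exposed to compound (typically 10 μM–1 nM) in HBSS with 80 μM L-tryptophan. Supernatant was TCA-treated at 65 °C for 15 min to convert N-formylkynurenine, and KYN was measured by HPLC-UV at 360 nm. IC50 came from nonlinear regression against a 1% DMSO control.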

[3] = biological target: Human TDO (hTDO)-transfected CHO-K1 cells (Homo sapiens (Human), UniProt P48775); assay: CHO-K1 cell based TDO assay; details: hTDO cellular assay
Human TDO (hTDO)-transfected CHO-K1 cells, sequence (P48775 whole entry): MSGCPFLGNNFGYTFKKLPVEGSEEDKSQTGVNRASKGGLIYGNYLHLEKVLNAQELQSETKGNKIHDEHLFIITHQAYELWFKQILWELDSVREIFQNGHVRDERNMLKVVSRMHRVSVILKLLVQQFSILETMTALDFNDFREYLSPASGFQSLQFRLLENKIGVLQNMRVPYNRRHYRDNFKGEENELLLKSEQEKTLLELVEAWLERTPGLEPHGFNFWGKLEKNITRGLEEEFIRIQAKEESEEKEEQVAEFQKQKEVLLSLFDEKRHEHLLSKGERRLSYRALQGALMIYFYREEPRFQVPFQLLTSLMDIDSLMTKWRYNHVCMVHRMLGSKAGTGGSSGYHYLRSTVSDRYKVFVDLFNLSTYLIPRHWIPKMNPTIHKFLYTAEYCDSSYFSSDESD
Method in brief: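 Stably hTDO-expressing CHO-K1 cells were exposed to compounds (typically 31 μM to 10 nM) in HBSS with 80 μM L-tryptophan for 2 h. TCA-treated supernatant was heated at 65° C for 15 min to convert N-formylkynurenine, then kynurenine was quantified by LC/MS/MS. IC50 came from percent inhibition versus DMSO control.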

Human indoleamine 2,3-dioxygenase1 (hIDO1), sequence (P14902 whole entry): as the sequence (P14902 whole entry) above

| SMILES | IC50 [1] | IC50 [2] | IC50 [3] |
| --- | --- | --- | --- |
| COc1ccc(Cl)cc1Nc1c(N)oc2cnccc12 [Compound 25, N^3-(5-Chloro-2-methoxyphenyl)furo[2,3-c]pyridine-2,3-diamine] | > 1000 nM | 200 to 1000 nM | 500 to 2000 nM |
| Cc1cc(Cl)cc(Nc2c(N)oc3cnccc23)c1 [Compound 87, N^3-(3-Chloro-5-methylphenyl)furo[2,3-c]pyridine-2,3-diamine] | 200 to 1000 nM | 200 to 1000 nM | 500 to 2000 nM |
| Nc1oc2c(-c3ccnc(C(=O)N4CCOCC4)c3)nccc2c1Nc1ccc(F)c(Cl)c1 [Compound 272, (4-(2-Amino-3-((3-chloro-4-fluorophenyl)amino)furo[2,3-c]pyridin-7-yl)pyridin-2-yl)(morpholino)methanone] | < 200 nM | < 200 nM | 500 to 2000 nM |
| Nc1oc2c(-c3ccc4c(c3)OCO4)nccc2c1Nc1ccc(F)c(Cl)c1 [Compound 261, 7-(Benzo[d][1,3]dioxol-5-yl)-N^3-(3-chloro-4-fluorophenyl)furo[2,3-c]pyridine-2,3-diamine] | < 200 nM | < 200 nM | 500 to 2000 nM |
| Cc1cc(-c2nccc3c(Nc4cccc(Cl)c4)c(N)oc23)ccn1 [Compound 238, N^3-(3-Chlorophenyl)-7-(2-methylpyridin-4-yl)furo[2,3-c]pyridine-2,3-diamine] | < 200 nM | < 200 nM | 500 to 2000 nM |
| N#Cc1ccc2c(Nc3cccc(Br)c3)c(N)oc2c1 [Compound 115, 2-Amino-3-((3-bromophenyl)amino)benzofuran-6-carbonitrile] | < 200 nM | < 200 nM | < 500 nM |
| Cc1ncc(C)c2c(Nc3ccc(F)c(Cl)c3)c(N)oc12 [Compound 72, N^3-(3-chloro-4-fluorophenyl)-4,7-dimethylfuro[2,3-c]pyridine-2,3-diamine] | 200 to 1000 nM | 200 to 1000 nM | 500 to 2000 nM |
| Cc1cc(-c2nccc3c(Nc4ccc(F)c(C(F)(F)F)c4)c(N)oc23)ccn1 [Compound 205, N^3-(4-fluoro-3-(trifluoromethyl)phenyl)-7-(2-methylpyridin-4-yl)furo[2,3-c]pyridine-2,3-diamine] | < 200 nM | < 200 nM | 500 to 2000 nM |
| Nc1oc2c(N(c3ccccc3)c3ccccc3)nccc2c1Nc1ccc(F)c(Cl)c1 [Compound 200, N^3-(3-Chloro-4-fluorophenyl)-N^7,N^7-diphenylfuro[2,3-c]pyridine-2,3,7-triamine] | 200 to 1000 nM | < 200 nM | > 2000 nM |
| Nc1sc2ccccc2c1Nc1ccc(Br)c(C(F)(F)F)c1 [Compound 126, N^3-(4-Bromo-3-(trifluoromethyl)phenyl)benzo[b]thiophene-2,3-diamine] | 200 to 1000 nM | 200 to 1000 nM | > 2000 nM |
| Nc1oc2cnc(F)cc2c1Nc1cccc(C(F)(F)F)c1 [Compound 221, 5-Fluoro-N^3-(3-(trifluoromethyl)phenyl)furo[2,3-c]pyridine-2,3-diamine] | < 200 nM | < 200 nM | 500 to 2000 nM |
| Cc1cc(Nc2c(N)oc3cnccc23)ccc1Cl [Compound 70, N^3-(4-Chloro-3-methylphenyl)furo[2,3-c]pyridine-2,3-diamine] | 200 to 1000 nM | < 200 nM | 500 to 2000 nM |
| CC(C)(C)c1cc(-c2nccc3c(Nc4ccc(F)c(Cl)c4)c(N)oc23)ccn1 [Compound 259, 7-(2-(tert-Butyl)pyridin-4-yl)-N^3-(3-chloro-4-fluorophenyl)furo[2,3-c]pyridine-2,3-diamine] | < 200 nM | 200 to 1000 nM | > 2000 nM |
| Nc1oc2cnccc2c1Nc1ccc(F)c(Br)c1 [Compound 58, N^3-(3-Bromo-4-fluorophenyl)furo[2,3-c]pyridine-2,3-diamine] | < 200 nM | < 200 nM | < 500 nM |
| Nc1oc2cnccc2c1Nc1ccc(F)cc1 [Compound 5, N^3-(4-Fluorophenyl)furo[2,3-c]pyridine-2,3-diamine] | 200 to 1000 nM | < 200 nM | 500 to 2000 nM |
| Nc1oc2c(I)nccc2c1Nc1ccc(F)c(Cl)c1 [Compound 153, N^3-(3-Chloro-4-fluorophenyl)-7-iodofuro[2,3-c]pyridine-2,3-diamine] | < 200 nM | < 200 nM | < 500 nM |
| CNC(=O)c1cc(-c2nccc3c(Nc4ccc(F)c(F)c4)c(N)oc23)ccn1 [Compound 223, 4-(2-Amino-3-((3,4-difluorophenyl)amino)furo[2,3-c]pyridin-7-yl)-N-methylpicolinamide] | < 200 nM | < 200 nM | 500 to 2000 nM |
| Nc1oc2cnccc2c1Nc1cccc(CC2CC2)c1 [Compound 84, N^3-(3-(Cyclopropylmethyl)phenyl)furo[2,3-c]pyridine-2,3-diamine] | > 1000 nM | 200 to 1000 nM | > 2000 nM |
| Nc1oc2c(Br)nccc2c1Nc1ccc(F)c(Cl)c1 [Compound 159, 7-Bromo-N^3-(3-chloro-4-fluorophenyl)furo[2,3-c]pyridine-2,3-diamine] | < 200 nM | < 200 nM | < 500 nM |
| Nc1oc2cnc(F)cc2c1Nc1cccc(Cl)c1 [Compound 220, N^3-(3-Chlorophenyl)-5-fluorofuro[2,3-c]pyridine-2,3-diamine] | < 200 nM | < 200 nM | < 500 nM |
| Nc1sc2ccccc2c1Nc1cccc(F)c1 [Compound 120, N^3-(3-Fluorophenyl)benzo[b]thiophene-2,3-diamine] | < 200 nM | < 200 nM | < 500 nM |
| Nc1oc2c(-c3ccncc3)nccc2c1Nc1cc(F)cc(F)c1 [Compound 187, N^3-(3,5-Difluorophenyl)-7-(pyridin-4-yl)furo[2,3-c]pyridine-2,3-diamine] | 200 to 1000 nM | < 200 nM | < 500 nM |
| Nc1oc2cnccc2c1Nc1ccc2c(c1)CCCC2 [Compound 71, N^3-(5,6,7,8-Tetrahydronaphthalen-2-yl)furo[2,3-c]pyridine-2,3-diamine] | > 1000 nM | < 200 nM | > 2000 nM |
| Nc1oc2c(-c3ccc4ccccc4c3)nccc2c1Nc1ccc(F)c(Cl)c1 [Compound 247, N^3-(3-Chloro-4-fluorophenyl)-7-(naphthalen-2-yl)furo[2,3-c]pyridine-2,3-diamine] | < 200 nM | < 200 nM | > 2000 nM |
| Nc1oc2cnccc2c1Nc1cccc(C(F)(F)F)c1 [Compound 26, N^3-(3-(Trifluoromethyl)phenyl)furo[2,3-c]pyridine-2,3-diamine] | < 200 nM | < 200 nM | 500 to 2000 nM |
| COc1cc2c(Nc3ccc(F)c(Cl)c3)c(N)oc2c(I)n1 [Compound 167, N^3-(3-Chloro-4-fluorophenyl)-7-iodo-5-methoxyfuro[2,3-c]pyridine-2,3-diamine] | < 200 nM | < 200 nM | > 2000 nM |
| Cc1cc(-c2nccc3c(Nc4ccc(F)c(Cl)c4)c(N)oc23)cc(C)n1 [Compound 164, N^3-(3-Chloro-4-fluorophenyl)-7-(2,6-dimethylpyridin-4-yl)furo[2,3-c]pyridine-2,3-diamine] | < 200 nM | < 200 nM | > 2000 nM |
| Cc1ccc2sc(N)c(Nc3ccc(F)c(F)c3)c2c1 [Compound 215, N^3-(3,4-difluorophenyl)-5-methylbenzo[b]thiophene-2,3-diamine] | 200 to 1000 nM | < 200 nM | > 2000 nM |
